For 3 molecules, melting point results are on record in patent US6569880B2, “Bis(benzimidazole) derivatives serving as potassium blocking agents” (Neurosearch A/S, priority 1998, dated 2003).

SMILES strings stand for the structures. Where a name gives a salt, the structure may show the parent alone.

`Nc1nc2ccccc2n1CCn1c(N)nc2ccccc21` [Compound 1e, 1,2-Bis(2-aminobenzimidazol-1-yl)ethane]: the melting point was in the range of 257 to 258 °C.
Take `Nc1nc2ccccc2n1CCCn1c(N)nc2ccccc21` [Compound 1d, 1,3-Bis(2-aminobenzimidazol-1-yl)propane]: the melting point is 220 °C (dec.).
The molecule `Nc1nc2ccccc2n1CCCCCCn1c(N)nc2ccccc21` (as salt: HCl) [Compound 1b, 1,6-Bis(2-aminobenzimidazol-1-yl)hexane] gave a melting point of 145 to 147 °C.
